Results taken from paper PMC9570017, “Unorthodox PCNA Binding by Chromatin Assembly Factor 1” (International Journal of Molecular Sciences, 2022).
Where two headings read alike, the source gives them in different places.

What was measured:
PCNA [1] = assay: Intrinsic tryptophan fluorescence quenching of PCNA by p150L; format: binding, human; conditions: 5 µM PCNA monomer + 20 µM p150L, excitation 280 nm, 10 mM sodium phosphate pH 7.2, 10 mM NaCl, 0.1 mM TCEP, room temperature
Procedure: Fluorescence experiments were performed on an Agilent Cary Eclipse fluorimeter at room temperature. Buffer conditions were identical for all protein components (10 mM sodium phosphate, pH 7.2, 10 mM NaCl, 0.1 mM TCEP). Samples were excited at A280nm with a 5 nm bandwidth and the emission spectra between 295 nm and 420 nm were collected. Measurements were made for 5 μM PCNA monomer (1 tryptophan residue), 20 μM CAF-1 p150L (no tryptophan and tyrosine residues), and a mixture containing 5 μM PCNA monomer and 20 μM CAF-1 p150L. Both samples were extensively dialyzed against the same buffer and prepared from stock samples to ensure identical conditions.

DNA = assay: Co-purification with nucleic acid (DNA binding); conditions: purification of p150L; high salt washes combined with benzonase required to remove nucleic acid
Description: An unusually long α-helix (119 amino acids) is predicted to end abruptly in the PIP RFF residues. The CAF-1 p150 PIP is surrounded by a red rectangle. To address this surprising prediction, CAF-1 p150 fragments that contained the predicted long α-helix including the PIP were expressed in E. coli, purified, and their biochemical and biophysical properties were characterized. This fragment of human p150 (Figure 5, residues 342–474) was expressed as a His-tagged fusion protein, hereafter referred to as CAF-1 p150L. […] Further treatment with benzonase and three sequential 1 M NaCl washes were required to remove the contamination.
S2. Expression and purification of p150L in Escherichia coli
A DNA fragment encoding human p150 residues 342-475 was cloned into the pET28a vector (kanamycin resistant) in-frame with a C-terminal 6X-histidine tag. For p150L ex-pression, this plasmid was transformed into Escherichia coli BL21(DE3) RIL cells (Strata-gene). Single colonies were inoculated and grown overnight to saturation at 37°C in 2X YT medium containing 50 µg/ml kanamycin. The next day, cells were diluted and grown to mid-exponential phase (A600nm = 0.6 - 0.8) at 37°C and protein expression was induced at 20°C with 0.5 mM isopropyl-β-D-thiogalactopyranoside (IPTG) for 16 h. […]

PCNA [2] = assay: NMR 1H-15N BEST HSQC of 15N-p150L with PCNA; format: binding, human; conditions: 50 μM p150L, 400 μM PCNA monomer, 10 mM sodium phosphate pH 7.2, 10 mM NaCl, 293K
Procedure: NMR experiments were carried out on a 600 MHz Bruker Avance III spectrometer equipped with a 5 mm QCIP cryoprobe with Z gradients. All experiments were carried out at 293K. Two-dimensional ^1H-^15N BEST HSQC [60] experiments were carried out using the sequences downloaded from the NMRlib suite of pulse sequences. Selective shaped pulses were used to excite a ^1H sweep width of 4.5 ppm, centered at 8.75 ppm, with a recycle delay of 0.2 s. ^1H and ^15N sweep widths were set to 8417.509 Hz (14 ppm) and 1920.466 Hz (31.6 ppm) respectively, typically 240 t1 increments were acquired. NMR samples were prepared in 10 mM sodium phosphate buffer, pH 7.2, 10 mM NaCl, and 90% H2O/10% D2O. Uniformly ^15N labelled CAF-1 p150L and unlabeled PCNA were prepared in identical buffers and added together from stock samples. Final sample concentrations were at 50 μM for CAF-1 p150L and 400 μM PCNA monomer. NMR spectra were processed with NMRpipe, a multidimensional spectral system based on UNIX pipes.

[3] = tested on: replication-coupled chromatin assembly; conditions: ref [18], cited from earlier work
Description: CAF-1 is composed of three subunits, conserved from yeast to human. In humans, mice, and Xenopus, the three subunits of CAF-1 are p150 (CHAF1A), p60 (CHAF1B), and RbAp48 (RBBP4). p150 contains two regions that bind PCNA. The first is a motif located within the N-terminal domain of p150 that we previously referred to as the PCNA binding domain (PBD) (Figure 1A). […] In order to probe this further, we determined the preliminary model of the structure of CAF-1 p150 PIP bound to PCNA based on a molecular replacement solution that could not be refined further. We report here that the CAF-1 PIP binds to PCNA in an unprecedented manner.

PCNA [4] = conditions: in vitro; ref [18]; cited from earlier work
Description: CAF-1 is composed of three subunits, conserved from yeast to human. In humans, mice, and Xenopus, the three subunits of CAF-1 are p150 (CHAF1A), p60 (CHAF1B), and RbAp48 (RBBP4). p150 contains two regions that bind PCNA. The first is a motif located within the N-terminal domain of p150 that we previously referred to as the PCNA binding domain (PBD) (Figure 1A). […] I ... || Similarly, the CAF-1 PIP box sequence of Msh3, which is a part of the DNA mismatch repair machinery, is 19-[…]-41 and in accordance with the canonical sequence, the first PIP box residue corresponds to a glutamine, whereas in contrast, in the PIP box of CAF-1 this is replaced by a lysine at this position, thus making the binding mode of CAF-1 p150 non-canonical and unique in the case of human CAF-1 sequence 442-[…]-449 and mouse CAF-1 sequence 421-[…]-428. Previous research from our lab has also shown that substitution of the CAF-1 p150 lysine by a glutamine to ...

Row | Substance | quenching of PCNA tryptophan fluorescence / binding (PCNA [1]) | quenching of PCNA tryptophan fluorescence / binding (PCNA [1]; listed as p150L) | DNA / nucleic acid binding (DNA) | NMR signal changes on mixing with PCNA (PCNA [2]) | NMR signal changes on mixing with PCNA (PCNA [2]; listed as p150L) | role or effect in chromatin assembly ([3]; listed as CAF-1 PIP) | role or effect in chromatin assembly [3] | binding to PCNA (PCNA [4])
1 | CAF-1 p150L: fragment of human p150 (residues 342–474) expressed as a His-tagged fusion protein | quenched a small portion of the tryptophan signal derived from PCNA | weak binding | co-purified with nucleic acid contamination | some of the well-resolved peaks corresponding to CAF-1 p150L disappeared or were significantly shifted | most of the p150L spectrum disappears | – | – | –
2 | KAEITRFF [PIP of p150] | – | – | – | – | – | preferentially inhibit nucleosome assembly over DNA synthesis | essential for chromatin assembly | shows weaker affinity for PCNA
